Experimental data published in article PMC5341070, “Small molecule inhibitors block Gas6-inducible TAM activation and tumorigenicity” (Scientific Reports, 2017).

Biological target: T1, Axl (Homo sapiens, UniProt P30530+Q14393)
T1 construct: extracellular and trans-membrane domain of Axl fused to IFN-γR1 intracellular domain; with Gas6
Test: Gas6-induced hAxl/IFN-γR1 CHO reporter (pSTAT1) inhibition; sAxl-Gas6 pull-down partially inhibited
Type: cell-based

T1 sequence (P30530 26-472 limits assumed): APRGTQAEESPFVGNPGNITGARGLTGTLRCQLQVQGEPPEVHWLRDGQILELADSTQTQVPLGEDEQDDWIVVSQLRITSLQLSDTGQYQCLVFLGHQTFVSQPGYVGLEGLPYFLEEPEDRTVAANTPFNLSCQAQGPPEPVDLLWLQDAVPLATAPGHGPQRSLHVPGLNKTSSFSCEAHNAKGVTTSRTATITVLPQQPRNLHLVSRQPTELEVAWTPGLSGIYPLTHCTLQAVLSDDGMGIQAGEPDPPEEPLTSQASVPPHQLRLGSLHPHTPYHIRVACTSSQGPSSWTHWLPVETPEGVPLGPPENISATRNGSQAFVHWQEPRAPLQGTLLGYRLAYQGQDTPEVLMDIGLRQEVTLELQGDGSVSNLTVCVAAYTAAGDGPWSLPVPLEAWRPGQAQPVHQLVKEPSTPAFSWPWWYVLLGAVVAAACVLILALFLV
T1 sequence (Q14393 31-678): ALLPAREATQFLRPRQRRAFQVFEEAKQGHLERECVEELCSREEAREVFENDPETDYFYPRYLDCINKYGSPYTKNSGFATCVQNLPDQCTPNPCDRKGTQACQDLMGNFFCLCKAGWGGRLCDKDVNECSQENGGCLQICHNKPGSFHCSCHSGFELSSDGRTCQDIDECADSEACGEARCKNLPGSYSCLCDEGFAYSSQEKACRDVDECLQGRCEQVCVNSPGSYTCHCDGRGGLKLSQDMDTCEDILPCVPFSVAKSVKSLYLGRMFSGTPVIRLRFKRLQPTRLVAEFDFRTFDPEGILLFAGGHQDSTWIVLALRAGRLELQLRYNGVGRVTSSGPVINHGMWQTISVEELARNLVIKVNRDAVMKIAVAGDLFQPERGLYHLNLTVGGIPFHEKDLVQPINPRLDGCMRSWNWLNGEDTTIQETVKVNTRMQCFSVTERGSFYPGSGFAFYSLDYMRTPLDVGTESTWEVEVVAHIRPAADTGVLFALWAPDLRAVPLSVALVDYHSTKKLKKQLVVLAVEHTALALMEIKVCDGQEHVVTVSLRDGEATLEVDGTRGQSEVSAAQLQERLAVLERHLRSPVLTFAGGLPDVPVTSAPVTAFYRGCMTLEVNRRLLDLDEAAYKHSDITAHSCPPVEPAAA

Cc1noc(C)c1CSc1ccccc1C(=O)N1CCN(c2cccc(C(F)(F)F)c2)CC1 [RU-302]
IC50: low micromolar
